Reference: US9884818B2, “Sulphamoylpyrrolamide derivatives and the use thereof as medicaments for the treatment of hepatitis B” (Janssen Sciences Ireland UC, priority 2013, dated 2018)

Tests used:
[1] = Cytotoxicity in HepG2 cells, Resazurin viability assay; conditions: human, HepG2 cells, HepG2 4 days CC50 (μM), incubated for 4 days, Resazurin assay
[2] = tested on: HBV; assay: Anti-HBV activity, HepG2.117 inducibly HBV producing cell line (Tet-off), intracellular HBV DNA by realtime PCR; type: cell-based; conditions: Hepatitis B virus, HepG2.117, 72 h, HepG2.117 cells, 3 days of treatment, intracellular HBV DNA; read-out: HepG2 117 EC50
[3] = tested on: HBV; assay: Anti-HBV activity, HepG2.2.15 stable transfected cell line, HBV DNA from secreted virions by realtime PCR; type: cell-based; conditions: Hepatitis B virus, HepG2.2.15, 144 h, HepG2.2.15 cells, 6 days of treatment, HBV DNA from secreted virions; read-out: HepG2 2.15 EC50

Row | SMILES | CC50 at 4 days [1] [µM] | EC50 [2] [nM] | EC50 [3] [nM]
1 | Cc1c(S(=O)(=O)NC2(C)COC2)cn(C)c1C(=O)Nc1ccc(F)c(Cl)c1 [Compound 149, N-(3-Chloro-4-fluorophenyl)-1,3-dimethyl-4-[(3-methyloxetan-3-yl)sulfamoyl]-1H-pyrrole-2-carboxamide] | > 25 | 30 | 40
2 | CC(C)NS(=O)(=O)c1cn(C)c(C(=O)Nc2ccc(F)c(C#N)c2F)c1F [Compound 231, N-(3-Cyano-2,4-difluorophenyl)-3-fluoro-1-methyl-4-[(1-methyl-ethyl)sulfamoyl]-1H-pyrrole-2-carboxamide] | > 25 | 30 | 40
3 | C[C@H](NS(=O)(=O)c1cc(C(=O)Nc2cc(F)c(F)c(Cl)c2)n(C)c1)C(F)(F)F [Compound 103, N-(3-Chloro-4,5-difluorophenyl)-1-methyl-4-{[(1S)-2,2,2-trifluoro-1-methylethyl]sulfamoyl}-1H-pyrrole-2-carboxamide] | > 25 | 20 | 50
4 | CCC(C)(NS(=O)(=O)c1cc(C(=O)Nc2ccc(F)c(C#N)c2)n(C)c1)C(F)(F)F (stereo not drawn) [Compound 246, N-(3-cyano-4-fluoro-phenyl)-1-methyl-4-{[1-methyl-1-(trifluoro-methyl)propyl]sulfamoyl}-1H-pyrrole-2-carboxamide] | > 25 | 60 | 50
5 | C[C@@H](NS(=O)(=O)c1cn(C2CC2)c(C(=O)Nc2ccc(F)c(C#N)c2)c1Cl)C(F)(F)F [Compound 305, 3-chloro-N-(3-cyano-4-fluoro-phenyl)-1-cyclopropyl-4-[[(1R)-2,2,2-trifluoro-1-methyl-ethyl]sulfamoyl]pyrrole-2-carboxamide] | > 25 | 350 | 170
6 | CC(C)NS(=O)(=O)c1cc(C(=O)Nc2cc(F)c(F)c(Br)c2)n(C)c1 [Compound 46, N-(3-bromo-4,5-difluoro-phenyl)-4-(isopropylsulfamoyl)-1-methyl-pyrrole-2-carboxamide] | > 25 | 170 | 120
7 | Cc1cc(NC(=O)c2cc(S(=O)(=O)NC(C)(C)C)cn2C)ccc1F [Compound 16, 4-(tert-butylsulfamoyl)-N-(4-fluoro-3-methyl-phenyl)-1-methyl-pyrrole-2-carboxamide] | > 25 | 30 | 60
8 | CC(C)NS(=O)(=O)c1cc(C(=O)Nc2ccc(F)c(C(F)(F)F)c2)n(C)c1 [Compound 44, N-[4-fluoro-3-(trifluoromethyl)phenyl]-4-(isopropylsulfamoyl)-1-methyl-pyrrole-2-carboxamide] | > 25 | 260 | 370
9 | C[C@H](NS(=O)(=O)c1cc(C(=O)Nc2ccc(F)c(Br)c2)n(C)c1)C(F)(F)F [Compound 101, N-(3-Bromo-4-fluorophenyl)-1-methyl-4-{[(1S)-2,2,2-trifluoro-1-methylethyl]sulfamoyl}-1H-pyrrole-2-carboxamide] | > 25 | 30 | 30
10 | Cc1cc(NC(=O)c2cc(S(=O)(=O)NC3(CCO)COC3)cn2C)ccc1F [Compound 14, N-(4-fluoro-3-methyl-phenyl)-4-[[3-(2-hydroxyethyl)oxetan-3-yl]sulfamoyl]-1-methyl-pyrrole-2-carboxamide] | > 25 | 20 | 40
11 | C[C@@H](NS(=O)(=O)c1cc(C(=O)Nc2ccc(F)c(Cl)c2)n(C)c1)C(F)(F)F [Compound 123, N-(3-Chloro-4-fluorophenyl)-1-methyl-4-{[(1R)-2,2,2-trifluoro-1-methylethyl]sulfamoyl}-1H-pyrrole-2-carboxamide] | > 25 | 40 | 40
12 | Cc1cc(NC(=O)c2cc(S(=O)(=O)NC3(CC#N)CC3)cn2C)ccc1F [Compound 18, 4-[[1-(cyanomethyl)cyclopropyl]sulfamoyl]-N-(4-fluoro-3-methyl-phenyl)-1-methyl-pyrrole-2-carboxamide] | > 25 | 30 | < 20
